Experimental data as given in the supplement of paper PMC10307832.

Experiments:
Test in all cases: relative viability (nuclei count vs DMSO), 5 days (fraction); higher = more cells survive
[1] = compound: CC1=CC(=CC=C1)NC2=NC(=CS2)C3=CC=NC=C3 + Nc1ncn([C@H]2C[C@H](O)[C@@H](CO)O2)c(=O)n1 [Decitabine] (partner 2 µM)
Procedure, shortened: (§1)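 Cells from lung cancer lines were seeded into 1536-well plates and, one day later, dosed by pin tool. Treatments were either a single drug or a fixed dose of an anchor drug with five library-drug doses (not always all listed) in √10 steps. After 5 days, nuclei were stained in a one-step fixation (final 0.05% Triton X-100, 1% formaldehyde, 1 ug/ml Hoechst) and counted on 4× images, and relative viability is the treated-to-vehicle nuclei ratio, as the median of duplicate plates.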

Masitinib + Decitabine = compound: Cc1ccc(NC(=O)c2ccc(CN3CCN(C)CC3)cc2)cc1Nc1nc(-c2cccnc2)cs1 [Masitinib] + Nc1ncn([C@H]2C[C@H](O)[C@@H](CO)O2)c(=O)n1 [Decitabine] (partner 2 µM)
Procedure, shortened: as §1

Masitinib + Navitoclax = compound: Cc1ccc(NC(=O)c2ccc(CN3CCN(C)CC3)cc2)cc1Nc1nc(-c2cccnc2)cs1 [Masitinib] + CC1(C)CCC(c2ccc(Cl)cc2)=C(CN2CCN(c3ccc(C(=O)NS(=O)(=O)c4ccc(N[C@H](CCN5CCOCC5)CSc5ccccc5)c(S(=O)(=O)C(F)(F)F)c4)cc3)CC2)C1 [Navitoclax] (partner 0.5 µM)
Procedure, shortened: as §1

[2] = compound: CC1=CC(=CC=C1)NC2=NC(=CS2)C3=CC=NC=C3 + COc1cc2c(Oc3ccc(NC(=O)C4(C(=O)Nc5ccc(F)cc5)CC4)cc3F)ccnc2cc1OCCCN1CCOCC1 [Foretinib] (partner 0.25 µM)
Procedure, shortened: as §1

Row | Cell Line | relative viability ([1]; first compound 0.08 µM) | relative viability ([1]; first compound 0.253 µM) | relative viability ([1]; first compound 0.8 µM) | relative viability ([1]; first compound 2.53 µM) | relative viability ([1]; first compound 8 µM) | relative viability (Masitinib + Decitabine; first compound 0.01 µM) | relative viability (Masitinib + Decitabine; first compound 0.03162 µM) | relative viability (Masitinib + Decitabine; first compound 0.1 µM) | relative viability (Masitinib + Decitabine; first compound 0.3162 µM) | relative viability (Masitinib + Decitabine; first compound 1 µM) | relative viability (Masitinib + Navitoclax; first compound 0.01 µM) | relative viability (Masitinib + Navitoclax; first compound 0.03162 µM) | relative viability (Masitinib + Navitoclax; first compound 0.1 µM) | relative viability (Masitinib + Navitoclax; first compound 0.3162 µM) | relative viability (Masitinib + Navitoclax; first compound 1 µM) | relative viability ([2]; first compound 0.08 µM) | relative viability ([2]; first compound 0.8 µM) | relative viability ([2]; first compound 2.53 µM) | relative viability ([2]; first compound 8 µM) | relative viability ([2]; first compound 0.253 µM)
1 | 201T | 0.898 | 0.904 | 0.909 | 0.937 | 0.827 | 0.762 | 0.861 | 0.848 | 0.921 | 0.881 | 0.954 | 1.2 | 1.08 | 1.21 | 1.19 | 0.835 | 0.939 | 0.759 | 0.871 | –
2 | A549 | 0.281 | 0.173 | 0.284 | 0.275 | 0.256 | 0.249 | 0.251 | 0.219 | 0.433 | 0.278 | 1.18 | 1.19 | 1.41 | 1.19 | 1.23 | 0.882 | 0.871 | 0.866 | 0.802 | 0.914
3 | A-427 | 0.558 | 0.544 | 0.547 | 0.548 | 0.546 | 0.491 | 0.539 | 0.567 | 0.515 | 0.541 | – | 0.99 | – | 0.927 | 0.933 | 1.02 | 1.14 | 0.924 | 0.707 | 1.08
4 | ABC-1 | 1.01 | – | 1.23 | 0.933 | 0.626 | 1.02 | 1.14 | 1.24 | 1.06 | 0.865 | – | – | – | – | – | 1.08 | 1.18 | 0.884 | 1.03 | 1.14
5 | CAL-12T | – | – | – | – | – | – | – | – | – | – | 1.52 | 1.32 | 1.26 | 1.17 | 1.25 | 1.2 | 1.04 | 1.09 | 0.899 | 1.08
6 | Calu-6 | – | – | – | – | – | – | – | – | – | – | 0.836 | 0.872 | 0.89 | 0.821 | 0.904 | 0.712 | 0.727 | 0.768 | 0.768 | 0.795
7 | EBC-1 | – | – | – | – | – | – | – | – | – | – | 0.363 | 0.397 | 0.41 | 0.385 | 0.494 | 0.0887 | 0.0911 | 0.117 | 0.114 | 0.103
8 | HCC-44 | 0.88 | 0.788 | 0.834 | 0.767 | 0.826 | 0.665 | 0.898 | 0.675 | 0.868 | 1.09 | 0.84 | 0.84 | 0.952 | 0.806 | 0.977 | – | – | – | – | –
9 | IA-LM | – | – | – | – | – | – | – | – | – | – | 0.733 | 0.699 | 1.02 | 0.689 | 1.01 | 1.04 | 1.03 | 0.941 | 0.838 | 1.16
10 | LCLC-103H | 0.72 | 0.664 | 0.672 | 0.665 | 0.573 | – | 0.723 | 0.735 | 0.748 | 0.711 | – | – | – | – | – | 0.663 | 0.725 | 0.76 | 0.608 | 0.695
11 | NCI-H358 | 0.233 | 0.22 | 0.208 | 0.249 | 0.225 | 0.184 | 0.195 | 0.243 | 0.189 | 0.192 | – | – | – | – | – | 0.699 | 0.671 | 0.934 | 0.566 | 0.797
12 | NCI-H522 | 0.702 | 0.63 | 0.708 | 0.801 | 0.677 | 0.707 | 0.897 | 0.8 | 0.696 | 0.646 | – | – | – | – | – | – | – | – | – | –
13 | NCI-H650 | 0.331 | 0.3 | 0.336 | 0.386 | 0.334 | 0.307 | 0.343 | 0.308 | 0.298 | 0.36 | – | – | – | – | – | 0.955 | 1.08 | 1.02 | 1.02 | 0.98
14 | NCI-H661 | 0.514 | 0.585 | 0.556 | 0.505 | 0.533 | 0.502 | 0.552 | 0.515 | 0.535 | 0.545 | – | – | – | – | – | 0.904 | 0.973 | 0.999 | 0.863 | 1.07
15 | NCI-H1299 | – | – | – | – | – | – | – | – | – | – | 1.08 | 1.03 | 1.04 | 1.04 | 1.03 | 1 | 0.993 | 1.01 | 0.897 | 1.06
16 | NCI-H1563 | – | – | – | – | – | – | – | – | – | – | – | – | – | – | – | 0.772 | 0.974 | 0.912 | 0.765 | 0.962
17 | NCI-H1648 | 0.345 | 0.42 | 0.496 | 0.356 | 0.376 | 0.614 | 0.451 | 0.568 | – | 0.453 | – | – | – | – | – | – | – | – | – | –
18 | NCI-H1703 | – | – | – | – | – | – | – | – | – | – | 0.748 | 0.898 | 0.464 | 0.29 | 0.243 | 0.293 | 0.367 | 0.374 | 0.375 | 0.347
19 | NCI-H1792 | 0.479 | 0.384 | 0.481 | 0.548 | 0.449 | 0.621 | 0.443 | 0.51 | 0.438 | 0.472 | 0.563 | 0.239 | 0.643 | 0.65 | 0.673 | – | – | – | – | –
20 | NCI-H2228 | – | – | – | – | – | – | – | – | – | – | 0.899 | 1.05 | 1.08 | 0.705 | 0.817 | 0.705 | 0.766 | 0.893 | 0.892 | 0.955
21 | NCI-H2342 | 0.691 | 0.773 | 0.657 | 0.77 | 0.761 | 0.724 | 0.648 | 0.683 | 0.79 | 0.833 | – | – | – | – | – | 0.889 | 0.949 | 1.08 | 1.14 | 1.03
22 | SW 900 | 0.443 | 0.381 | 0.353 | 0.389 | 0.441 | 0.349 | 0.438 | 0.452 | 0.519 | 0.442 | – | – | – | – | – | 1.05 | 0.797 | 0.756 | 0.851 | 0.89
